Data on three molecules can be found in patent US20110028471A1, “COMBINATION THERAPY 238” (ASTRAZENECA AB, priority 2008, published 2011).

In data set [1] the target is stem cell factor receptor tyrosine kinase (SCF RTK, commonly known as c-Kit) (Homo sapiens, UniProt P10721). The data set can be described thus: inhibition of c-Kit.
In the next data set the test system is HUVEC. The data set can be described thus: HUVEC assay, endothelial cell proliferation. Format: cell-based. As to conditions: Homo sapiens.
The next data set relates to Calu-6 tumour xenograft. Kind of data set: Calu-6 tumour xenograft in vivo solid tumour model. As to conditions: once-daily oral, 28 days.
Data set [2] is described as follows: body weight loss in A549 study. Format: in vivo, mice. As to conditions: Compound A 20 mg/kg, AZD2171 3 mg/kg, range in brackets. The protocol:
When mean tumour volume reached approximately 0.27 cm^3, the mice were randomized into control and treatment groups. […] The control group received both vehicles alone (same sequence as above), once daily by oral gavage. Tumor volumes (measured by calliper), animal body weight and tumor condition were recorded twice weekly for the duration of the study. Mice were humanely sacrificed by CO2 euthanasia. Tumour volumes were assessed using bilateral Vernier calliper measurement at least twice weekly and calculated using the formula (length×width)×√(length×width)×(π/6), where length was taken to be the longest diameter across the tumour and width the corresponding perpendicular. Growth inhibition from the start of treatment was assessed by comparison of the differences in tumor volume between control and treated groups. Because the variance in mean tumor volume data increases proportionally with volume (and is therefore disproportionate between groups), data were log-transformed to remove any size dependency before statistical evaluation. Statistical significance was evaluated using a one-tailed, two-sample t test. […] A two-way ANOVA test was performed using the factors concentration of drug A and concentration of drug B. The data analyzed was Log(final tumor volume)−Log(initial tumor volume) calculated for each individual animal at the end of the study. […]

In the next data set the test system is A549 tumour xenografts. The data set can be described thus: A549 xenograft tumour growth, combination study. The class given is in vivo, mice. As to conditions: Compound A 20 mg/kg, AZD2171 3 mg/kg; for tumour growth inhibition: A549, female athymic mice, oral gavage once daily, 21 days, combination same doses, compared to control; for tumours smaller than at start of treatment: A549, individual tumour volumes at the end of the dosing period. The procedure:
Human tumour xenografts were established in female athymic mice by injecting 5×10^6/0.1 ml A549a cells subcutaneously in the left hand side flank.
When mean tumour volume reached approximately 0.27 cm^3, the mice were randomized into control and treatment groups. […] The control group received both vehicles alone (same sequence as above), once daily by oral gavage. Tumor volumes (measured by calliper), animal body weight and tumor condition were recorded twice weekly for the duration of the study. Mice were humanely sacrificed by CO2 euthanasia. Tumour volumes were assessed using bilateral Vernier calliper measurement at least twice weekly and calculated using the formula (length×width)×√(length×width)×(π/6), where length was taken to be the longest diameter across the tumour and width the corresponding perpendicular. Growth inhibition from the start of treatment was assessed by comparison of the differences in tumor volume between control and treated groups. Because the variance in mean tumor volume data increases proportionally with volume (and is therefore disproportionate between groups), data were log-transformed to remove any size dependency before statistical evaluation. Statistical significance was evaluated using a one-tailed, two-sample t test. To analyze the data from the combination study, the statistical tool SigmaStat has been used. A two-way ANOVA test was performed using the factors concentration of drug A and concentration of drug B. The data analyzed was Log(final tumor volume)−Log(initial tumor volume) calculated for each individual animal at the end of the study. This tool is used to assess whether there is a main effect of drug A, a main effect of drug B plus a significant mechanistic interaction between the two compounds A and B (eg, one compound influences the effect of the other compound) which may be interpreted as antagonism, additivity or synergism. The statistical analysis was performed at the end of the dosing period (21 days).

Data set [3] has as its system pS6. The data set can be described thus: pharmacodynamic study, pS6 in A549 xenograft tissue. Format: in vivo, mice. As to conditions: 4 days of treatment, 2 hrs after last dosing, Compound A 20 mg/kg, AZD2171 3 mg/kg. The procedure: (§1) Compound A was dosed two hours before AZD2171 (or vehicle).
Data set [4] deals with cleaved caspase 3. Kind of data set: cleaved caspase 3 immunohistochemistry, A549 xenografts. The class given is in vivo, mice. The settings on record: A549 xenograft, 2 hours after 4 days of treatment; control 0.94%; Compound A 20 mg/kg, AZD2171 3 mg/kg. The protocol:
Compound A was dosed two hours before AZD2171 (or vehicle). […] The levels of cleaved caspase 3 (percentage of positive nuclei) were determined in tumour xenografts by immunohistochemistry 2 hours after 4 days of treatment.

Data set [5] has as its system pAKT. Kind of data set: pharmacodynamic study, pAKT in A549 xenograft tissue. Format: in vivo, mice. The settings on record: 4 days of treatment, 2 hrs after last dosing, Compound A 20 mg/kg, AZD2171 3 mg/kg. The procedure:
as §1
In the combination group, levels of pAKT were similar to those with Compound A to 58% (p<0.005) compared to control (FIG. 3).

Another data set concerns NCI-H526 xenografts. The data set can be described thus: NCI-H526 xenograft tumour growth, combination study. The class given is in vivo. As to conditions: NCI-H526, nude mice, oral gavage; Compound A 20 mg/kg, AZD2171 3 mg/kg, combination same doses; compared with vehicle control. The protocol: Cells were grown in NCI-H526 (RPMI 10% FCS 1% Glutamine 10% Ml), and 1×10^7 cells were implanted into the flank of nude mice (NCI-H526 plus 50% matrigel).
When mean tumor size reached approx 0.2 cm^3, the mice were randomized into control and treatment groups. […] When administered in combination, COMPOUND A was given 2 hours […] the oral dose of the other compound. The control group received the (10% DMSO 90% propylene glycol) vehicle alone, once daily by oral gavage. Tumor volumes (measured by calliper), animal body weight and tumor condition were recorded twice weekly for the duration of the study. Mice were sacrificed by CO2 euthanasia. The tumor volume was calculated (taking length to be the longest diameter across the tumor and width to be the corresponding perpendicular diameter using the formula: (length×width)×√(length×width)×(π/6). Growth inhibition from the start of treatment was assessed by comparison of the differences in tumor volume between control and treated groups. Because the variance in mean tumor volume data increases proportionally with volume (and is therefore disproportionate between groups), data were log-transformed to remove any size dependency before statistical evaluation. Statistical significance was evaluated using a one-tailed, two-sample t test. To analyze the data from the combination study, the statistical tool SigmaStat has been used. […]

Data set [6] deals with Microvessel density (CD31 staining). The data set can be described thus: microvessel density by CD31 immunohistochemistry, A549 xenografts. The settings on record: A549 xenograft, 2 hours after 4 days of treatment; vehicle 26.6%; Compound A 20 mg/kg, AZD2171 3 mg/kg. The class given is in vivo, mice. The procedure:
Microvessel density (MVD) was evaluated using CD31 staining by immunohistochemistry 2 hours after 4 days of treatment.

The test system is the same in data set [7]. Kind of data set: microvessel density by CD31 immunohistochemistry, U87MG xenografts. The class given is in vivo, mice. As to conditions: U87MG xenograft, 2 hours after 4 days of treatment; vehicle 59%; Compound A 10 mg/kg, ZD6474 50 mg/kg. The procedure: Microvessel density (MVD) was evaluated using CD31 staining by immuno-histochemistry 2 hours after 4 days of treatment. MVD values were 59% in vehicle-treated animals, reduced to 22% (p<0.05) after ZD6474, 50% (p=0.23) after Compound A, and 28% (p<0.05) after the combination (FIG. 8). There was no statistical interaction between compound A and ZD6474 in the combination-treated tumours (p=0.27).

In data set [8] the test system is pAKT. Kind of data set: pharmacodynamic study, pAKT in U87MG xenograft tissue. Format: in vivo, mice. The settings on record: 4 days of treatment, 2 hrs after last dosing, Compound A 10 mg/kg, ZD6474 50 mg/kg.
A further data set deals with U87MG xenografts. The data set can be described thus: U87MG xenograft tumour growth, combination study. The settings on record: female athymic mice, oral gavage once daily, 7 days, Compound A 10 mg/kg/qd, ZD6474 50 mg/kg/qd, combination same doses, compared to control. The class given is in vivo. The protocol:
(§2) Human tumour xenografts were established in female athymic mice by injecting 2.3×10^6/0.1 ml U87MG cells subcutaneously in the left hand side flank. When mean tumour volume reached approximately 0.18 cm^3, the mice were randomized into control and treatment groups. The treatment groups received 50 mg/kg ZD6474 (vehicle 1% polysorbate 80 milled overnight) or 10 mg/kg COMPOUND A (30% captisol pH5) or a combination 50 mg/kg ZD6474 and 10 mg/kg COMPOUND A by oral gavage. When administered in combination, COMPOUND A was given 2 hours before the oral dose of ZD6474. The control group received both vehicles (same sequence as above), once daily by oral gavage. Tumor volumes (measured by calliper), animal body weight and tumor condition were recorded twice weekly for the duration of the study. Mice were humanely sacrificed by CO2 euthanasia. Tumour volumes were assessed using bilateral Vernier calliper measurement at least twice weekly and calculated using the formula (length×width)×√(length×width)×(π/6), where length was taken to be the longest diameter across the tumour and width the corresponding perpendicular. Growth inhibition from the start of treatment was assessed by comparison of the differences in tumor volume between control and treated groups. […] Statistical significance was evaluated using a one-tailed, two-sample t test. […]

A short description of data set [9]: body weight loss in U87MG study. The class given is in vivo, mice. As to conditions: Compound A 10 mg/kg, ZD6474 50 mg/kg, range in brackets. The procedure: as §2
Data set [10] deals with cleaved caspase 3. The data set can be described thus: cleaved caspase 3 immunohistochemistry, U87MG xenografts. Format: in vivo, mice. The settings on record: U87MG xenograft, 2 hours after 4 days of treatment; control 0.46%; Compound A 10 mg/kg, ZD6474 50 mg/kg. The protocol:
The levels of cleaved caspase 3 (percentage of positive nuclei) were determined in tumour xenografts by immunohistochemistry 2 hours after 4 days of treatment.

Data set [11] has as its system pS6. Kind of data set: pharmacodynamic study, pS6 in U87MG xenograft tissue. The settings on record: 4 days of treatment, 2 hrs after last dosing, Compound A 10 mg/kg, ZD6474 50 mg/kg.
Experimental: A pharmacodynamic study evaluated biomarkers after 4 days of treatment. Animals were dosed with vehicle, ZD6474 (50 mg/kg), Compound A (10 mg/kg) or the combination daily. Compound A was dosed two hours before ZD6474 (or vehicle). Animals were culled and tumour xenograft tissue collected 2 hrs after the last dosing. […] In addition a two-way ANOVA test was performed to analyse the interaction between compounds in the combination group.

SMILES strings stand for the structures. Read-outs that look alike come from different tables or passages of the source. Where only a bound is given, the exact number is not on record here.

Chain of stem cell factor receptor tyrosine kinase (SCF RTK, commonly known as c-Kit) (P10721 26-976): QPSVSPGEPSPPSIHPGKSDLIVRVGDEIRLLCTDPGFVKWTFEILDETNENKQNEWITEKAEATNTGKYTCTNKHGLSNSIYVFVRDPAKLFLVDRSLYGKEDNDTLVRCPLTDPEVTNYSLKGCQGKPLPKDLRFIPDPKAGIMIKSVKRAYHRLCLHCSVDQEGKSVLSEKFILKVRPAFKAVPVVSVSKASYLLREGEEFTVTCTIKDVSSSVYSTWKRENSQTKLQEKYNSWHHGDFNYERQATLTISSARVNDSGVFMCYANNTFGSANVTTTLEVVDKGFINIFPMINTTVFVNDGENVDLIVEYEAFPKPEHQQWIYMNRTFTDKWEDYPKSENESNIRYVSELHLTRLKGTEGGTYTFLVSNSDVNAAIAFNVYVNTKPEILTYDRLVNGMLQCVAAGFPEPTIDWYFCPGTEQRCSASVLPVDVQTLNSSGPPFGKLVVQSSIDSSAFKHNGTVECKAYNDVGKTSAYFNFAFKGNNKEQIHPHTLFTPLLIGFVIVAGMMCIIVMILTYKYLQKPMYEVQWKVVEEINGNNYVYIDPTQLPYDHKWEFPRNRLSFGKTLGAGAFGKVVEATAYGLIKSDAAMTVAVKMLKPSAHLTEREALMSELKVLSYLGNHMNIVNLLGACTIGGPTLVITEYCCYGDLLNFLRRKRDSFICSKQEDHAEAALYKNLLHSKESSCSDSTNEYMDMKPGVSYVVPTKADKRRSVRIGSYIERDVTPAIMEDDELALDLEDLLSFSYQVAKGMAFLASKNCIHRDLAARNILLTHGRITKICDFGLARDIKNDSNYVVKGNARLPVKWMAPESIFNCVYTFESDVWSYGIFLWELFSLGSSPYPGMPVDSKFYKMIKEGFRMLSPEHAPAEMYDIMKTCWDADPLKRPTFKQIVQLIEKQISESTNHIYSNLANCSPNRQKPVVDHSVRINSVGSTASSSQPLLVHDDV

As for `COc1cc2c(Oc3ccc4[nH]c(C)cc4c3F)ncnc2cc1OCCCN1CCCC1` [AZD2171, 4-(4-fluoro-2-methyl-1H-indol-5-yloxy)-6-methoxy-7-(3-(pyrrolidin-1-yl)propoxy)quinazoline], in data set [1], the “inhibition of c-Kit” value was “inhibits c-Kit”. Moreover, the IC50 in the data set on HUVEC (HUVEC assay, VEGF-stimulated, read-out: IC50, VEGF-stimulated endothelial cell proliferation) was 0.4 ± 0.2 nM; with HUVEC (HUVEC, basal (no VEGF stimulation), read-out: IC50, basal endothelial cell proliferation) it was over 500 nM. In addition, the “inhibition of growth of Calu-6 tumour xenograft” value with Calu-6 tumour xenograft (1.5 mg/kg/day) worked out at 49%; in the data set with Calu-6 tumour xenograft (3 mg/kg/day), 69%; in the data set on Calu-6 tumour xenograft (6 mg/kg/day), 91%. The “maximum body weight loss” value in data set [2] came to 2.52%. The tumour growth inhibition in the data set with A549 tumour xenografts is given as 81.6%. Moreover, the “tumours smaller than at start of treatment” value with A549 tumour xenografts is reported as “tumour volumes were greater than at start of the treatment”. In addition, the “levels of pS6 (normalised to total) compared to control” value with pS6 [3] stood at 126%. The “CC3 values (percentage of positive nuclei)” value in the data set on cleaved caspase 3 [4] amounted to 0.43%. In the data set on pAKT [5], the “levels of pAKT (normalised to total) compared to control” value amounted to 95%. In the data set with NCI-H526 xenografts, the “reduction in geometric mean delta tumour volume” value amounted to 64%. Moreover, in data set [6], the MVD values turned out to be 7.75%.
For `COc1ccc(-c2ccc3c(N4CCOC[C@@H]4C)nc(N4CCOC[C@@H]4C)nc3n2)cc1CO` [Compound A, [5-[2,4-bis[(3S)-3-methylmorpholin-4-yl]pyrido[5,6-e]pyrimidin-7-yl]-2-methoxyphenyl]methanol], the figures for the “maximum body weight loss” value in data set [2] and in data set [9] were 3.45% and 0.44%, respectively. Further, the tumour growth inhibition in the data set on A549 tumour xenografts came to 99.3%; in the data set on U87MG xenografts it was 28.4%. The “tumours smaller than at start of treatment” value with A549 tumour xenografts is listed as 4 out of 10. Besides, the “levels of pS6 (normalised to total) compared to control” value with pS6 [3] is given as 37%; with pS6 [11], 55%. Besides, the “CC3 values (percentage of positive nuclei)” value in the data set on cleaved caspase 3 [4] was 1.98%; in the data set on cleaved caspase 3 [10] it was 1.64%. Besides, the MVD values in data set [7] is 50%; in [6], 19.39%. Further, the “levels of pAKT (normalised to total) compared to control” value turned out to be 37% in the data set on pAKT [8] and 48% in the data set with pAKT [5]. Further, the “reduction in geometric mean delta tumour volume” value in the data set on NCI-H526 xenografts turned out to be 38%.
Take `COc1cc2c(Nc3ccc(Br)cc3F)ncnc2cc1OCC1CCN(C)CC1` [ZD6474, 4-(4-bromo-2-fluoroanilino)-6-methoxy-7-(1-methylpiperidin-4-ylmethoxy)quinazoline]: the MVD values in data set [7] is 22%. The “levels of pAKT (normalised to total) compared to control” value in the data set with pAKT [8] is reported as 87%. Moreover, the tumour growth inhibition in the data set on U87MG xenografts was −14.6%. Further, the “maximum body weight loss” value in [9] is on record as 3.77%. Also, the “CC3 values (percentage of positive nuclei)” value in the data set with cleaved caspase 3 [10] amounted to 0.73%. In the data set on pS6 [11], the “levels of pS6 (normalised to total) compared to control” value came out at 108%.
